The values that follow come from patent US11324787B2, “Analytical methods and arrays for use in the same” (SENZAGEN AB, priority 2017, dated 2022).

The conditions of data set [1]: cited from earlier work; for Human potency: class 1 representing highest potency, 6 representing non-sensitizers; for HP: human potency; for binary class (HP*): based on human potency [41] where available, otherwise according to CLP.
For data set [2], the system named is myeloid cell line derived from MUTZ-3. As to the kind of experiment: GARD binary classification (SVM on GARD prediction signature, 200 transcripts).
For data set [3] the following is noted: cited from earlier work; for binary class: sens / non-sens.
Where [4] appears, read: Table 8 chemical list, GARD SVM decision value.
The mark [5] stands for this setting: chemicals of random forest training and test set.
[6] abbreviates: Table 9, chemicals training set.
Where [7] appears, read: CLP annotation of 37 novel chemicals.

Like-named read-outs stand apart in the source and are kept apart here.

`CC1(C)S[C@@H]2[C@H](NC(=O)Cc3ccccc3)C(=O)N2[C@H]1C(=O)O` [Penicillin G]: the Human potency in data set [1] is on record as 3. In data set [2] (setting [4]), the “SVM DV” value was 1.06.

Turning to `C[S+](C)[O-]` [dimethyl sulfoxide], in data set [3] (setting [5]), the CLP result is given as “no cat” and the binary class result is on record as “non-sens”. For the same compound, the HP in data set [1] (setting [5]) is 6.

On to `Clc1ccccc1` [chlorobenzene], for which the “SVM DV” value in data set [2] (setting [4]) is given as −1.63.

Consider `COC(=O)c1ccccc1O` [methyl salicylate], for which the CLP entry in data set [3] (setting [6]) is given as “no cat”. Also, in data set [3] (setting [5]), the CLP entry was “no cat” and the binary class result was “non-sens”. The Human potency in data set [1] was 5. Besides, in data set [1] (setting [5]), the HP is recorded as 5. Besides, the “SVM DV” value in data set [2] (setting [4]) is on record as −1.53.

With `CCCCCCCCCCCCOC(=O)c1cc(O)c(O)c(O)c1` [lauryl gallate], the CLP in data set [3] (setting [6]) is recorded as 1A. Besides, in data set [3] (setting [5]), the CLP is 1A and the binary class entry was “sens”. The HP in data set [1] (setting [5]) is 2.

In the case of `O=[N+]([O-])c1ccc(Cl)c([N+](=O)[O-])c1` [2,4-dinitrochlorobenzene], the CLP in data set [3] (11 benchmark chemicals), in data set [3] (setting [6]) and in data set [3] (setting [5]) was 1A in each case. Besides, the binary class entry in data set [3] (11 benchmark chemicals) and in data set [3] (setting [5]) was “sens” throughout. In addition, the HP in data set [1] (11 benchmark chemicals) and in data set [1] (setting [5]) was 1 in each case.

For the compound `CCCCCCCCCCCCOS(=O)(=O)[O-].[Na+]` [Sodium lauryl sulfate], the “SVM DV” value in data set [2] (setting [4]) is given as −1.52.

Turning to `C=O` [formaldehyde], the “SVM DV” value in data set [2] is recorded as 2.32.

Take `C=CCc1ccc(O)c(OC)c1` [eugenol]: the “SVM DV” value in data set [2] (setting [4]) is on record as 1.02.

Turning to `CCCCCCCC(=O)O` [octanoic acid], the CLP entry in data set [3] (setting [6]) is on record as “no cat”. Also, in data set [3] (setting [5]), the CLP result is on record as “no cat” and the binary class entry is listed as “non-sens”. For the same compound, the Human potency in data set [1] is listed as 6. The HP in data set [1] (setting [5]) is given as 6. In addition, the “SVM DV” value in data set [2] (setting [4]) is −1.19.

For `O=CCc1ccccc1` [phenylacetaldehyde], the CLP in data set [3] (setting [6]) was 1B. Further, in data set [3] (setting [5]), the CLP was 1B and the binary class entry was “sens”.

On to `OCC(O)CO` [glycerol], for which, in data set [1], the Human potency was 6. The HP in data set [1] (setting [5]) is listed as 6. For the same compound, the “SVM DV” value in data set [2] (setting [4]) is listed as −2.05.

In the case of `O=[N+]([O-])c1ccc(CBr)cc1` [4-nitrobenzylbromide], the CLP in data set [3] (setting [6]) and in data set [3] (setting [5]) was 1A in each case. For the same compound, in data set [3] (setting [5]), the binary class entry is “sens”.

Consider `O=CC=O` [glyoxal], for which, in data set [2] (setting [4]), the “SVM DV” value is recorded as 1.08.

Regarding `CC(C)=CCC/C(C)=C/CO` [geraniol], the “SVM DV” value in data set [2] (setting [4]) was 1.76.

Regarding `CCCCCCCC/C=C\CCCCCCCC(=O)OCCOCC(OCCO)C1OCC(OCCO)C1OCCO` (stereo not drawn) [Tween 80], the CLP entry in data set [3] (setting [6]) is recorded as “no cat”. In addition, in data set [3] (setting [5]), the CLP entry is on record as “no cat” and the binary class result is recorded as “non-sens”. In data set [1], the Human potency is 6. The HP in data set [1] (setting [5]) is 6. The “SVM DV” value in data set [2] (setting [4]) was −1.39.

For `OC/C=C/c1ccccc1` [Cinnamic alcohol], in data set [1], the Human potency is recorded as 3. Also, in data set [2] (setting [4]), the “SVM DV” value was 2.94.

On to `CC=Cc1ccc(O)c(OC)c1` [isoeugenol], for which the CLP in data set [3] (setting [6]) is 1A. Besides, in data set [3] (setting [5]), the CLP is on record as 1A and the binary class entry is “sens”. Moreover, the HP in data set [1] (setting [5]) was 2.

Consider `CC(O)CO` (stereo not drawn) [Propylene glycol], for which, in data set [1], the Human potency is recorded as 5. Moreover, in data set [2] (setting [4]), the “SVM DV” value is −1.18.

xylene: in data set [1] (setting [5]), the HP was 6. Further, in data set [1] (test set), the “Human potency [41]” value was 6.

As to `Oc1ccccc1` [phenol], the “SVM DV” value in data set [2] is listed as −1.08.

Turning to chloroanilin, in data set [3] (setting [6]), the CLP is recorded as 1B. Also, in data set [3] (setting [5]), the CLP is 1B and the binary class entry is recorded as “sens”.

For the compound `CC(C)O` [isopropanol], the CLP result in data set [3] (setting [6]) is “no cat”. Also, in data set [3] (setting [5]), the CLP entry is “no cat” and the binary class entry is “non-sens”. In addition, the Human potency in data set [1] is on record as 5. In addition, the HP in data set [1] (setting [5]) is 5. Also, in data set [2] (setting [4]), the “SVM DV” value was −1.37.

With `CC(CC=O)CCCC(C)(C)O` (stereo not drawn) [hydroxycitronellal], in data set [3] (setting [6]), the CLP is given as 1B. Besides, in data set [3] (setting [5]), the CLP is 1B and the binary class entry is on record as “sens”. In data set [1] (setting [5]), the HP is 4.

For `NCCN` [ethylenediamine], in data set [2] (setting [4]), the “SVM DV” value is 1.12.

Regarding `O=c1c(-c2ccccc2)c1-c1ccccc1` [diphenylcyclopropenone], the CLP in data set [3] (setting [6]) is 1A. For the same compound, in data set [3] (setting [5]), the CLP was 1A and the binary class result is given as “sens”. Further, the HP in data set [1] (setting [5]) was 1.

As for `Oc1cccc(O)c1` [resorcinol], the HP in data set [1] (11 benchmark chemicals) and in data set [1] (setting [5]) was 4 each time. Further, the Human potency in data set [1] is 4. Moreover, the “SVM DV” value in data set [2] (setting [4]) is listed as 1.03.

`CCCCCC` [hexane]: the CLP result in data set [3] (setting [6]) and in data set [3] (setting [5]) was “no cat” throughout. Also, the binary class result in data set [3] (setting [5]) is “non-sens”. For the same compound, in data set [1] (setting [5]), the HP is recorded as 6.

On to `Sc1nc2ccccc2s1` [2-mercaptobenzothiazole], for which the CLP in data set [3] (setting [6]) and in data set [3] (setting [5]) was 1A each time. For the same compound, the binary class result in data set [3] (setting [5]) is “sens”. For the same compound, the Human potency in data set [1] is recorded as 3. Further, in data set [1] (setting [5]), the HP is given as 3. The “SVM DV” value in data set [2] (setting [4]) is listed as 2.52.

`[K+].[K+].[O]=[Cr](=[O])([O-])[O][Cr](=[O])(=[O])[O-]` [potassium dichromate]: the CLP in data set [3] (setting [6]) and in data set [3] (setting [5]) was 1A each time. Besides, the binary class entry in data set [3] (setting [5]) was “sens”.

On to `O=C(O)c1ccc(O)cc1` [p-hydroxybenzoic acid], for which, in data set [3] (setting [6]), the CLP result was “no cat”. For the same compound, in data set [3] (setting [5]), the CLP result is recorded as “no cat” and the binary class entry was “non-sens”.

In the case of `Oc1ccc(O)cc1` [hydroquinone], in data set [3] (setting [6]), the CLP is 1A. In addition, in data set [3] (setting [5]), the CLP is given as 1A and the binary class result was “sens”. In addition, the HP in data set [1] (setting [5]) is given as 3.

As for `CCCCCCC(C=O)=Cc1ccccc1` [hexylcinnamic aldehyde], the CLP in data set [3] (11 benchmark chemicals), in data set [3] (setting [6]) and in data set [3] (setting [5]) was 1B in each case. In addition, the binary class entry in data set [3] (11 benchmark chemicals) and in data set [3] (setting [5]) was “sens” throughout. Besides, the HP in data set [1] (11 benchmark chemicals) and in data set [1] (setting [5]) was 5 throughout. Moreover, the Human potency in data set [1] is reported as 5. Further, the “SVM DV” value in data set [2] (setting [4]) is recorded as 1.24.

In the case of `O=C(Oc1ccccc1)c1ccccc1` [phenyl benzoate], the CLP in data set [3] (setting [6]) is 1B. Also, in data set [3] (setting [5]), the CLP was 1B and the binary class entry was “sens”. The HP in data set [1] (setting [5]) was 3.

In the case of `CCCOC(=O)c1cc(O)c(O)c(O)c1` [propyl gal late], the CLP in data set [3] (Table 10, chemicals test set 1) is listed as 1A.

Regarding `Nc1ccccc1O` [2-aminophenol], the HP in data set [1] (11 benchmark chemicals) and in data set [1] (setting [5]) was 2 in each case. Further, in data set [1], the Human potency is on record as 2. In addition, in data set [2] (setting [4]), the “SVM DV” value was 5.98.

For the compound `Nc1ccc(N)cc1` [PPD], the Human potency in data set [1] was 1. Moreover, the “SVM DV” value in data set [2] (setting [4]) is listed as 5.32.

Regarding `NC[C@H]1O[C@H](O[C@H]2[C@H](O)[C@@H](O[C@H]3O[C@H](CO)[C@@H](O)[C@H](N)[C@H]3O)[C@H](N)C[C@@H]2N)[C@H](O)[C@@H](O)[C@@H]1O` [kanamycin A], in data set [3] (setting [6]), the CLP entry is on record as “no cat”. In data set [3] (setting [5]), the CLP entry is “no cat” and the binary class entry is listed as “non-sens”. The “binary class (HP*)” value in data set [1] is “NS (5-6 = NS)”.

With `OCC=Cc1ccccc1` [cinnamyl alcohol], the CLP in data set [3] (setting [6]) is recorded as 1B. Besides, in data set [3] (setting [5]), the CLP is on record as 1B and the binary class result is on record as “sens”. For the same compound, in data set [1] (setting [5]), the HP was 3.

For `O=C(O)c1ccccc1O` [salicylic acid], the Human potency in data set [1] was 6. The HP in data set [1] (setting [5]) is on record as 6. In data set [2] (setting [4]), the “SVM DV” value is −1.41.

For `C=CC(=O)OCCO` [2-hydroxyethyl acrylate], in data set [2] (setting [4]), the “SVM DV” value was 8.87.

Regarding `Nc1ccc(N)cc1` [p-phenylenediamine], the CLP in data set [3] (11 benchmark chemicals), in data set [3] (setting [6]) and in data set [3] (setting [5]) was 1A in each case. In addition, the binary class entry in data set [3] (11 benchmark chemicals) and in data set [3] (setting [5]) was “sens” each time.

In the case of `CC(C=O)Cc1ccc(C(C)(C)C)cc1` (stereo not drawn) [lilial], the CLP in data set [3] (setting [7]), in data set [3] (setting [6]) and in data set [3] (setting [5]) was 1B each time. Besides, the binary class result in data set [3] (setting [5]) is given as “sens”. Besides, the “binary class (HP*)” value in data set [1] was “S (HP 1-4 = S)”.

In the case of `O=Cc1ccccc1` [benzaldehyde], the “SVM DV” value in data set [2] (setting [4]) is −2.13.

`CC(O)C(=O)O` (stereo not drawn) [lactic acid]: the HP in data set [1] (setting [5]) is listed as 6. Also, the “SVM DV” value in data set [2] (setting [4]) is reported as −2.38.

As for `N#CCCC(Br)(C#N)CBr` (stereo not drawn) [methyldibromo glutaronitrile], the CLP in data set [3] (setting [6]) is 1A. Besides, in data set [3] (setting [5]), the CLP is 1A and the binary class entry is listed as “sens”. Besides, the HP in data set [1] (setting [5]) is 2.

In the case of `Nc1ccc(C(=O)O)cc1` [PABA], the Human potency in data set [1] is 5. Further, in data set [2] (setting [4]), the “SVM DV” value is reported as −1.04.

Turning to `O=[N+]([O-])c1ccc(F)c([N+](=O)[O-])c1` [2,4-dinitrofluorobenzene, 2,4-Dinitrofluorobenzene], the CLP in data set [3] (setting [7]), in data set [3] (setting [6]) and in data set [3] (setting [5]) was 1A in each case. Besides, the binary class entry in data set [3] (setting [5]) is “sens”. In data set [1], the “binary class (HP*)” value was “S (HP 1-4 = S)”. Besides, the GARD binary prediction entry in data set [2] (SVM, median calibrated decision value of replicates >0 = sensitizer) was “S”.
